# Results: patent US20240407990A1, “SYNERGISTIC ANTIOXIDANT COMPOSITIONS” (The Procter & Gamble Company, priority 2023, published 2024)
# Assays:
# keratinocytes = experiment: Peroxide-Induced Keratinocyte Stress (ATP levels post-peroxide exposure); format: cell-based; parameters: key: net luminescence counts (treatment minus vehicle control)
# Description: This methodology is further discussed in Assessing bioenergetic function in response to oxidative stress by metabolic profiling. Free Radical Biology and Medicine; […], Benavides […], Zelickson […]. Zou L, Chatham J C, Hill B G, Zhang […]; 2011 Nov. 1; 51(9):1621-35, incorporated herein by reference, as well as in Proceedings of the National Academy of Sciences of the United States of America; Miyoshi N, Oubrahim H, Chock […] . . . 2006 Feb. 7; 103(6):1727-31, incorporated herein by reference. […] Hydrogen peroxide is a well-known ROS as is commonly used as a surrogate to analyze the effects of a variety of ROS. In this test, keratinocytes are cultured (passage <8) in T150 flasks using Epi-Life medium (Calcium Free and Phenol Red Free, supplemented with penicillin/streptomycin and keratinocytes growth supplement, Invitrogen cat #[…]500) in a CO2 incubator (Forma 51030532, Marietta OH). The keratinocytes are then plated into 96 well plates, 10,000 cells/well, 0.2 ml media. […] Luminescence is measured on a SpectraMax M3 (Molecular Devices, Sunnyvale, CA). Net luminescence is calculated by subtracting the luminescence counts from the vehicle control from the luminescence counts from the treatment groups. […] In each case, the arithmetic sum of the measured anti-oxidant activity of the three individual components is compared to the measured anti-oxidant activity of the triad combination of the same levels. Experiments are done in triplicate enabling the statistical determination (by T-test) of significance of whether synergism (observed/calculated ratio is greater than 1) is observed.
# skin fibroblasts = skin fibroblasts in vitro; cited from earlier work
# skin = conditions: cited from earlier work
compound,measurement,setting,value
"CC(C)(CO)[C@@H](O)C(=O)NCCCO [Panthenol, panthenol]",Mean Keratinocyte ATP Level,"keratinocytes; Panthenol 0.005% alone, post-peroxide, series with PO 0.5%",193.3
same,Mean Keratinocyte ATP Level,"keratinocytes; Panthenol 0.005% alone, post-peroxide, series with PO 0.8%",170.0
same,Mean Keratinocyte ATP Level,"keratinocytes; Panthenol 0.01% alone, post-peroxide, series with PO 0.5%",473.3
same,Mean Keratinocyte ATP Level,"keratinocytes; Panthenol 0.01% alone, post-peroxide, series with PO 0.8%",280.0
same,Mean Keratinocyte ATP Level,"keratinocytes; Panthenol 0.05% alone, post-peroxide, series with PO 0.5%",617.3
same,Mean Keratinocyte ATP Level,"keratinocytes; Panthenol 0.05% alone, post-peroxide, series with PO 0.8%",550.7
same,Mean Keratinocyte ATP Level,"keratinocytes; Panthenol 0.1% alone, post-peroxide, series with PO 0.5%",1234.3
same,Mean Keratinocyte ATP Level,"keratinocytes; Panthenol 0.1% alone, post-peroxide, series with PO 0.8%",1227.7
same,Mean Keratinocyte ATP Level,"keratinocytes; Panthenol 0.2% alone, post-peroxide, series with PO 0.5%",5282.0
same,Mean Keratinocyte ATP Level,"keratinocytes; Panthenol 0.2% alone, post-peroxide, series with PO 0.8%",5711.7
same,formation of reactive oxygen species (ROS),skin fibroblasts,inhibit
"Cc1cc(CC(C)CC(C)(C)C)n(O)c(=O)c1.NCCO (stereo not drawn) [Piroctone Olamine, piroctone olamine]",Mean Keratinocyte ATP Level,"keratinocytes; Piroctone Olamine 0.5% alone, post-peroxide exposure",13548.3
same,Mean Keratinocyte ATP Level,"keratinocytes; Piroctone Olamine 0.8% alone, post-peroxide exposure",18548.3
"NC(=O)c1cccnc1 [Niacinamide, niacinamide]",Mean Keratinocyte ATP Level,"keratinocytes; Niacinamide 0.005% alone, post-peroxide, series with PO 0.5%",100.3
same,Mean Keratinocyte ATP Level,"keratinocytes; Niacinamide 0.005% alone, post-peroxide, series with PO 0.8%",32.7
same,Mean Keratinocyte ATP Level,"keratinocytes; Niacinamide 0.01% alone, post-peroxide, series with PO 0.5%",154.3
same,Mean Keratinocyte ATP Level,"keratinocytes; Niacinamide 0.01% alone, post-peroxide, series with PO 0.8%",85.7
same,Mean Keratinocyte ATP Level,"keratinocytes; Niacinamide 0.05% alone, post-peroxide, series with PO 0.5%",341.0
same,Mean Keratinocyte ATP Level,"keratinocytes; Niacinamide 0.05% alone, post-peroxide, series with PO 0.8%",465.0
same,Mean Keratinocyte ATP Level,"keratinocytes; Niacinamide 0.1% alone, post-peroxide, series with PO 0.5%",1142.0
same,Mean Keratinocyte ATP Level,"keratinocytes; Niacinamide 0.1% alone, post-peroxide, series with PO 0.8%",875.0
same,Mean Keratinocyte ATP Level,"keratinocytes; Niacinamide 1.0% alone, post-peroxide, series with PO 0.5%",9208.3
same,Mean Keratinocyte ATP Level,"keratinocytes; Niacinamide 1.0% alone, post-peroxide, series with PO 0.8%",6003.7
same,Mean Keratinocyte ATP Level,"keratinocytes; Niacinamide 1.8% alone, post-peroxide, series with PO 0.5%",12314.3
same,Mean Keratinocyte ATP Level,"keratinocytes; Niacinamide 1.8% alone, post-peroxide, series with PO 0.8%",11751.3
same,lipoperoxide generation in skin,skin,inhibit
same,oxidative damage caused by pollutant particulate matter,skin,inhibit
